The values that follow are results of earlier work, collected in PMC6650409, “Modeling the binding of diverse ligands within the Ah receptor ligand binding domain” (Scientific Reports, 2019).

Changes are numbered by the printed parent chain.

The subject of one data set is Q377A mutant AhR. Details: method as in PMID 17223691. The following applies: mutation of Q377 to alanine; cited from earlier work.
Data set [1] concerns zebrafish AhR1a (zfAhR1a). As to conditions: cited from earlier work.
A further data set deals with T1, M334A mutant AhR (Mus musculus, UniProt P30561, M334A).
T1 construct: made in house; host or cells: in vitro, Promega TNT Quick rabbit reticulocyte lysate
T1 sequence (P30561 10-848 M334A): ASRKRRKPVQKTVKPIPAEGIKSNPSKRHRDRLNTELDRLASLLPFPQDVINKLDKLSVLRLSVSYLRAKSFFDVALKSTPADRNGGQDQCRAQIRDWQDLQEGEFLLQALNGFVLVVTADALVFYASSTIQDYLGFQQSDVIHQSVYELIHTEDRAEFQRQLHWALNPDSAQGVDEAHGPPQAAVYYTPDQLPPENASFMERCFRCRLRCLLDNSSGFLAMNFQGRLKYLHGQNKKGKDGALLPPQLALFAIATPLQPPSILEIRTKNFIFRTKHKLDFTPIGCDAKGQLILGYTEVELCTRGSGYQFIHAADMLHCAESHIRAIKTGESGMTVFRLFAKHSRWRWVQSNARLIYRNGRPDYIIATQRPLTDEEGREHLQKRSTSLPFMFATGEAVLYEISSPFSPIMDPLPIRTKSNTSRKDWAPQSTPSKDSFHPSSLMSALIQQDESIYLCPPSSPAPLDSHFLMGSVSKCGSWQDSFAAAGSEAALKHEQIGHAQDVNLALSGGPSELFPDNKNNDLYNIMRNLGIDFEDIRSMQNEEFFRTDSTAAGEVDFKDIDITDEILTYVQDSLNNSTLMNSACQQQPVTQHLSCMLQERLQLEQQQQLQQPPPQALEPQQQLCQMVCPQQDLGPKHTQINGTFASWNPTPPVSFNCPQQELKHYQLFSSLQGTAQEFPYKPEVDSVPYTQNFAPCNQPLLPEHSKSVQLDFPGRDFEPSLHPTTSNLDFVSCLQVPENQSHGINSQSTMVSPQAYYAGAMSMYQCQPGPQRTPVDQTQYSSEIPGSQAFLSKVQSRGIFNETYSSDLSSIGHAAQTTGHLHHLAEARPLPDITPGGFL
Further details: method as in PMID 21981577. The following applies: M334A mutation; cited from earlier work.

The next data set addresses T2, S359A mutant AhR (Mus musculus, UniProt P30561, S359A).
T2 construct: made in house; host or cells: in vitro, Promega TNT Quick rabbit reticulocyte lysate
T2 sequence (P30561 10-848 S359A): T1 sequence (P30561 10-848 M334A) with A325M, S350A
Further details: method as in PMID 21981577. The following applies: S359A mutation; cited from earlier work.

Take `Clc1cc2c(cc1Cl)Oc1cc(Cl)c(Cl)cc1O2` [TCDD, 2,3,7,8-tetrachlorodibenzo-p-dioxin]: in the data set on Q377A mutant AhR, the TCDD specific binding result is listed as “abolish”. Besides, in data set [1], the “ligand binding to zfAhR1a” value is “unable to bind”. Moreover, the TCDD binding activity entry on M334A mutant AhR and on S359A mutant AhR was “only partially affected” each time.
